The structures appear in SMILES notation.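 Tested at 5 concentrations; 48 h exposure; 96-well plates; endpoints linearly interpolated, else capped at highest concentration. GI50: concentration for 50% inhibition of growth. TGI: concentration producing complete growth inhibition.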

Holding throughout (assay): NCI tumour cell line growth inhibition, 48 h
For assay [1], the system named is BT-549 breast.
The test system of assay [2] is HCC-2998 colon.
Assay [3] relates to HCT-15 colon.
For assay [4], the system named is MCF7 breast.
Assay [5] has as its system OVCAR-8 ovarian.
Assay [6] relates to RXF 393 renal.
For assay [7], the system named is SF-268 CNS.
The subject of assay [8] is SF-539 CNS.
In assay [9] the test system is TK-10 renal.
The subject of assay [10] is UACC-62 melanoma.

For the molecule `COc1cc(/C=C\c2cccnc2Nc2ccccc2)cc(OC)c1OC`, the GI50 in [1] is 14.3 µM; in [2], 7.74 µM; in assay [3] it was 5.02 µM; in assay [4], 3.97 µM; in assay [5], 6.7 µM; in assay [6] it was 5.22 µM. Besides, the GI50 in assay [7] is 8.19 µM; in [8], 12.2 µM; in assay [9], 15.5 µM; in assay [10], 4.96 µM. The TGI in assay [1] is 65.3 µM; in assay [2], over 100 µM; in assay [3], over 100 µM; in assay [4] it was 44.7 µM; in [5] it was over 100 µM; in [6], 64.8 µM. The TGI was over 100 µM in assay [7], over 100 µM in [8], 80.7 µM in [9] and 25.4 µM in assay [10].

On to `CCN(CC)CCOc1ccc(C2=C(c3ccccc3)CCc3cc(OC)ccc32)cc1`, for which the GI50 in assay [1] is 4.17 µM; in assay [2], 1.39 µM; in [3] it was 1.16 µM; in assay [4] it was 0.547 µM; in assay [5], 3.15 µM; in [6], 10.2 µM. The GI50 in assay [7] was 5.97 µM; in assay [8], 1.52 µM; in [9], 2.74 µM; in assay [10], 1.87 µM. The TGI in [1] was found to be 15.2 µM; in [2], 2.81 µM; in [3] it was 4.06 µM; in assay [4] it was 2.62 µM; in assay [5], 10.5 µM; in assay [6] it was 35.9 µM. Also, the TGI in [7] worked out at 18 µM; in assay [8] it was 2.89 µM; in [9], 9.47 µM; in assay [10], 3.9 µM.

The values above are taken from PubChem BioAssay (NCI).
